“And” between values parts separate entries of the source, which are not always exact repeats. Equal entries are not always repeated. Where two headings read alike, the source gives them in different places.
Experiments:
Format in all cases: cell-based
Salmonella spp. 017 = test: Ex.4 colony coloration, 5-bromo-3-indolyl nonanoate, DMSO/Tween 20, MacConkey; design: key to color: —: absence of colour or intensity
[1] = tested on: Salmonella enteritidis 006; test: as above
Salmonella typhi 118 = tested on: Salmonella typhi 118; for intensity of coloration: key: 0: no activity; 0.1: trace of coloration; 0.5: very pale coloration; 1: distinct coloration of low intensity; 2: clear coloration of medium intensity; 3: intense coloration; 4: very intense coloration
Salmonella arizonae 018 = test: Ex.4 colony coloration, 5-bromo-3-indolyl nonanoate, DMSO/Tween 20, MacConkey; for intensity of coloration: key: 0: no activity; 0.1: trace of coloration; 0.5: very pale coloration; 1: distinct coloration of low intensity; 2: clear coloration of medium intensity; 3: intense coloration; 4: very intense coloration
Escherichia coli 002 = test: as above; design: key: —: absence of colour or intensity
Hafnia alvei 025 = test: as above; design: key: —: absence of colour or intensity
[2] = tested on: bacterial species exhibiting esterase activity; test: Ex.4 overall conclusion, colony coloration; conditions: experimental conditions of Example 4
From the text: This medium is then separated into eight portions.

## CCCCC(CC)COS(=O)(=O)[O-].[Na+] (centres unmarked) [Tergitol 8]
Salmonella spp. 017; 2 ml/l Tergitol 8, 24 h
  color: gray
  intensity of coloration: 0.5
Salmonella spp. 017; 2 ml/l Tergitol 8, 48 h
  color: gray
  intensity of coloration: 1.5
Salmonella spp. 017; 4 ml/l Tergitol 8, 24 h
  color: gray
  intensity of coloration: 0.3
Salmonella spp. 017; 4 ml/l Tergitol 8, 48 h
  color: gray
  intensity of coloration: 1
Salmonella spp. 017; 8 ml/l Tergitol 8, 24 h
  color: —
Salmonella spp. 017; 8 ml/l Tergitol 8, 48 h
  color: gray
  intensity of coloration: 0.5
[1]; 2 ml/l Tergitol 8, 24 h
  color: gray
  intensity of coloration: 3
[1]; 2 ml/l Tergitol 8, 48 h
  color: gray
  intensity of coloration: 4
[1]; 4 ml/l Tergitol 8, 24 h
  color: gray
  intensity of coloration: 2.5
[1]; 4 ml/l Tergitol 8, 48 h
  color: gray
  intensity of coloration: 3
[1]; 8 ml/l Tergitol 8, 24 h
  color: gray
  intensity of coloration: 3
[1]; 8 ml/l Tergitol 8, 48 h
  color: gray
  intensity of coloration: 3.5
Salmonella typhi 118
  color: gray
  intensity of coloration: 1 and 1.5 and 2
Salmonella arizonae 018; 2 ml/l Tergitol 8, 24 h
  color: gray
  intensity of coloration: 2
Salmonella arizonae 018; 2 ml/l Tergitol 8, 48 h
  color: gray
  intensity of coloration: 4
Salmonella arizonae 018; 4 ml/l Tergitol 8, 24 h
  color: gray
  intensity of coloration: 2
Salmonella arizonae 018; 4 ml/l Tergitol 8, 48 h
  color: gray
  intensity of coloration: 2.5
Salmonella arizonae 018; 8 ml/l Tergitol 8, 24 h
  color: gray
  intensity of coloration: 2
Salmonella arizonae 018; 8 ml/l Tergitol 8, 48 h
  color: gray
  intensity of coloration: 2.5
Escherichia coli 002; 2 ml/l Tergitol 8, 24 h
  color: —
Escherichia coli 002; 2 ml/l Tergitol 8, 48 h
  color: —
Escherichia coli 002; 4 ml/l Tergitol 8, 24 h
  color: —
Escherichia coli 002; 4 ml/l Tergitol 8, 48 h
  color: —
Escherichia coli 002; 8 ml/l Tergitol 8, 24 h
  color: —
Escherichia coli 002; 8 ml/l Tergitol 8, 48 h
  color: —
Hafnia alvei 025; 2 ml/l Tergitol 8, 24 h
  color: —
Hafnia alvei 025; 2 ml/l Tergitol 8, 48 h
  color: —
Hafnia alvei 025; 4 ml/l Tergitol 8, 24 h
  color: —
Hafnia alvei 025; 4 ml/l Tergitol 8, 48 h
  color: —
Hafnia alvei 025; 8 ml/l Tergitol 8, 24 h
  color: —
Hafnia alvei 025; 8 ml/l Tergitol 8, 48 h
  color: —
[2]
  effect on the esterase activity compared with Tergitol 4: not as pronounced as that observed with Tergitol 4

## polyethylene glycol mono-p-isooctylphenyl ether [Triton X100]
Salmonella spp. 017; 8 ml/l Triton X100, 24 h
  color: gray
  intensity of coloration: 1
Salmonella spp. 017; 8 ml/l Triton X100, 48 h
  color: gray
  intensity of coloration: 3
Salmonella spp. 017; 16 ml/l Triton X100, 24 h
  color: gray
  intensity of coloration: 0.5
Salmonella spp. 017; 16 ml/l Triton X100, 48 h
  color: gray
  intensity of coloration: 2
Salmonella spp. 017; 32 ml/l Triton X100, 24 h
  color: —
Salmonella spp. 017; 32 ml/l Triton X100, 48 h
  color: gray
  intensity of coloration: 0.5
[1]; 8 ml/l Triton X100, 24 h
  color: gray
  intensity of coloration: 2
[1]; 8 ml/l Triton X100, 48 h
  color: gray
  intensity of coloration: 2.5
[1]; 16 ml/l Triton X100, 24 h
  color: gray
  intensity of coloration: 2
[1]; 16 ml/l Triton X100, 48 h
  color: gray
  intensity of coloration: 2.5
[1]; 32 ml/l Triton X100, 24 h
  color: gray
  intensity of coloration: 1
[1]; 32 ml/l Triton X100, 48 h
  color: gray
  intensity of coloration: 1.5
Salmonella typhi 118; 8 ml/l Triton X100, 24 h
  color: gray
  intensity of coloration: 1
Salmonella typhi 118; 8 ml/l Triton X100, 48 h
  color: gray
  intensity of coloration: 1
Salmonella typhi 118; 16 ml/l Triton X100, 24 h
  color: gray
  intensity of coloration: 1
Salmonella typhi 118; 16 ml/l Triton X100, 48 h
  color: gray
  intensity of coloration: 1
Salmonella typhi 118; 32 ml/l Triton X100, 24 h
  color: gray
  intensity of coloration: 0.5
Salmonella typhi 118; 32 ml/l Triton X100, 48 h
  color: gray
  intensity of coloration: 0.5
Salmonella arizonae 018; 8 ml/l Triton X100, 24 h
  color: gray
  intensity of coloration: 2
Salmonella arizonae 018; 8 ml/l Triton X100, 48 h
  color: gray
  intensity of coloration: 2.5
Salmonella arizonae 018; 16 ml/l Triton X100, 24 h
  color: gray
  intensity of coloration: 2
Salmonella arizonae 018; 16 ml/l Triton X100, 48 h
  color: gray
  intensity of coloration: 2.5
Salmonella arizonae 018; 32 ml/l Triton X100, 24 h
  color: gray
  intensity of coloration: 1
Salmonella arizonae 018; 32 ml/l Triton X100, 48 h
  color: gray
  intensity of coloration: 2
Escherichia coli 002; 8 ml/l Triton X100, 24 h
  color: —
Escherichia coli 002; 8 ml/l Triton X100, 48 h
  color: —
Escherichia coli 002; 16 ml/l Triton X100, 24 h
  color: —
Escherichia coli 002; 16 ml/l Triton X100, 48 h
  color: —
Escherichia coli 002; 32 ml/l Triton X100, 24 h
  color: —
Escherichia coli 002; 32 ml/l Triton X100, 48 h
  color: —
Hafnia alvei 025; 8 ml/l Triton X100, 24 h
  color: —
Hafnia alvei 025; 8 ml/l Triton X100, 48 h
  color: —
Hafnia alvei 025; 16 ml/l Triton X100, 24 h
  color: —
Hafnia alvei 025; 16 ml/l Triton X100, 48 h
  color: —
Hafnia alvei 025; 32 ml/l Triton X100, 24 h
  color: —
Hafnia alvei 025; 32 ml/l Triton X100, 48 h
  color: —
[2]
  effect on the esterase activity compared with Tergitol 4: not as pronounced as that observed with Tergitol 4

Source: patent US7235379B2, “Method and medium for the detection/identification of microorgranisms with esterase activity” (Bio Merieux, priority 2000, dated 2007)
